Measured values from patent US20210113687A1, “METHODS FOR TREATING INFLAMMATION” (NEW YORK UNIVERSITY, priority 2013, published 2021).

Assays:
BMDMs = test: qPCR of Sema3e mRNA in macrophages; assay type: cell-based, mouse; details: BMDM, CoCl2
Description: Total RNA was isolated from cells using TRIzol Reagent (Invitrogen). RNA (1 μg) was reverse-transcribed with an iScript cDNA Synthesis kit according to the manufacturer's instructions (Bio-Rad). KAPA SYBR FAST qPCR Master Mix was used for RT-PCR analysis. Primers used are listed in supplemental Table I. The change in mRNA expression was calculated by the comparative change in cycle method (ΔΔCT). All data were normalized to GAPDH or 28S and were expressed as fold change over the control.
RAW264.7 cells were obtained from American Type Culture Collection. Peritoneal macrophages (pMø) were collected from mice by peritoneal lavage 4 d after intraperitoneal injection of 3% (wt/vol) thioglycollate as previously described (Kunjathoor, et al., J Biol Chem., 2002, 277:49982-49988). Bone marrow derived macrophages (BMDMs) were prepared from mice as previously described (Kunjathoor, et al., J Biol Chem., 2002, 277:49982-49988). For gene expression experiments, macrophages were plated at 1×10^6 cells/well in 6 well plates. CoCl2 (0.1M solution) was obtained from Sigma and used at the concentrations indicated to mimic hypoxia. Oxidation or acetylation of LDL (50 μg/mL; Biomedical Technologies) was performed as described (Kunjathoor, et al., J Biol Chem., 2002, 277:49982-49988). Recombinant IL-4 and IFN-γ were purchased from PeproTech. Ultrapure LPS from E. coli K12 was purchased from InvivoGen.

BMDM [1] = test: BMDM migration towards MCP-1 (xCelligence); assay type: cell-based, mouse; details: CoCl2-treated vs control macrophages
Description: Macrophage chemotaxis was measured using the Real-Time Cell Invasion and Migration xCelligence Assay System with monitoring every 3 min (Roche Applied Science). BMDM migration towards MCP-1 (100 ng/ml; R&D Systems) was measured in the presence or absence of oxLDL (50 μg/ml) and/or recombinant rat UNC5b-Fc chimera (1006-UN; R&D Systems) to block the effects of netrin-1. In a subset of experiments, cells were pre-treated with 0.1 mmol/L CoCl2 for 1 h prior to migration. J774 macrophage migration was carried out in the presence or absence of UNC5b-Fc chimera. Results of chemotaxis assays are representative of at least three independent experiments performed on triplicate samples.

peritoneal macrophages = test: Migration of palmitate-treated peritoneal macrophages to CCL19; assay type: cell-based, mouse; details: treatment with palmitate
Description: (§1) Cell culture. Primary bone marrow derived macrophage (BMDM) was prepared by flushing the bone marrow of the tibia and femur of 6-8 week old C57/B6 mice. The cells were grown in DMEM supplemented with 15% L929-conditioned media, 10% FBS and 1% penicillin/streptomycin for 7 days. BMDM were stimulated 250 pM palmitate conjugated with BSA or BSA as a control for 24 hours, or TNFα (10 ng/ml, 410-MT-010; R&D systems), IL-6 (40 nglml, 406-ML-005; R&D systems) and IL-4 (1 Onglml, 404-ML-010; R&D systems) for 24 h. In some assays, differentiated BMDM were treated with conditioned media from 3T3-L1 adipocytes differentiated as described (Lin, et al., J Biol Chem, 2005; 280:4617-4626) and treated with 250 pM palmitate conjugated with BSA or BSA for 24 hours. In certain experiments, anti-TNFα (0.4 μg/ml, AF-410-NA, R&D systems) or anti-IL-6 (0.025 μg/ml, MAB406; R&D systems) blocking antibody or IgG control (Normal Goat IgG: AB-108-C, Rat IgG1: MAB005; R&D systems) was added to conditioned media. Peritoneal macrophages were isolated as described (van Gils, et al., Nat Immunol, 2012; 13:136-143). […]
Migration. The migration of ATM or peritoneal macrophages to CCL19 (500 ng/ml; R&D Systems) was assessed by the xCelligence Real-time Cell Invasion and Migration system (ACEA biosciences Inc) that monitored chemotaxis every 5 minutes for over 6 h. […]

3T3L1 adipocytes = test: qRT-PCR of 3T3L1 adipocytes; assay type: cell-based; details: palmitate treatment
Description: (§2) Real-time Quantitative RT-PCR Analysis RNA (0.5-1 μg) was reverse transcribed using iScript™ cDNA Synthesis Kit (Biorad) and RT-PCR analysis was conducted using kapa SYBR green Supermix (kappa syber) and a Mastercycler Realplex (Eppendorf) the primers used are listed. Fold change in mRNA expression was calculated using the comparative cycle method (ΔΔCt).
as §1, with “media.” for “media. Peritoneal macrophages were isolated as described (van Gils, et al., Nat Immunol, 2012; 13:136-143).”

[2] = system: human NTNI promoter-luciferase reporter; test: NTN1 promoter-luciferase assay (Example 4); assay type: cell-based; details: HEK293 cells
Description: (§3) Promoter-Luciferase assays. HEK293T cells were transfected with human NTNI or Unc5H2 promoter-luciferase reporter constructs (SwitchGear Genomics) using Lipofectamine™ 2000 (11668-019, Invitrogen) After transfection, media was changed and cells were treated with palmitate or BSA for 24 hours, in the presence or absence of the NFkB inhibitor BAY 11-7082 (10 μmol/L). Luciferase activity was measured using the DUAL-Glo Luciferase Assay system (E1910, Promega).

[3] = system: human Unc5H2 promoter-luciferase reporter; test: Unc5H2 promoter-luciferase assay (Example 4); assay type: cell-based; details: HEK293 cells
Description: as §3

BMDM [4] = test: netrin-1 ELISA of BMDM supernatants; assay type: cell-based, mouse
Description: as §1, with “media.” for “media. Peritoneal macrophages were isolated as described (van Gils, et al., Nat Immunol, 2012; 13:136-143).”
ELISA assay. Insulin (90080; crystal Chem Inc), adiponectin (ab108785; Abeam), FFA (SFA-1; Zen Bio), TNFa (88-7064-76; ebiosciences) and netrin-1 (E91827Mu; USCN life science Inc) levels were measured in the serum using mouse standards according to manufacturer's guidelines. Netrin-1 in human serum was measured using a human-specific netrin-1 ELISA from USCN Life Science Inc (700176; mybiosource).

BMDM [5] = test: qRT-PCR of BMDM (palmitate, cytokines, adipocyte conditioned media); assay type: cell-based, mouse; details: BMDMs, palmitate conjugated to BSA
Description: as §2
Cell culture. Primary bone marrow derived macrophage (BMDM) was prepared by flushing the bone marrow of the tibia and femur of 6-8 week old C57/B6 mice. The cells were grown in DMEM supplemented with 15% L929-conditioned media, 10% FBS and 1% penicillin/streptomycin for 7 days. BMDM were stimulated 250 pM palmitate conjugated with BSA or BSA as a control for 24 hours, or TNFα (10 ng/ml, 410-MT-010; R&D systems), IL-6 (40 nglml, 406-ML-005; R&D systems) and IL-4 (1 Onglml, 404-ML-010; R&D systems) for 24 h. In some assays, differentiated BMDM were treated with conditioned media from 3T3-L1 adipocytes differentiated as described (Lin, et al., J Biol Chem, 2005; 280:4617-4626) and treated with 250 pM palmitate conjugated with BSA or BSA for 24 hours. In certain experiments, anti-TNFα (0.4 μg/ml, AF-410-NA, R&D systems) or anti-IL-6 (0.025 μg/ml, MAB406; R&D systems) blocking antibody or IgG control (Normal Goat IgG: AB-108-C, Rat IgG1: MAB005; R&D systems) was added to conditioned media. Peritoneal macrophages were isolated as described (van Gils, et al., Nat Immunol, 2012; 13:136-143). Mice were injected intraperitoneally with 1 ml of 3% (wt/vol) thioglycolate to elicit sterile sterile peritonitis with macrophage numbers peaking on day 4. Cells were collected by lavage and used for migration assays.
Palmitate-BSA preparation. Sodium palmitate (P9767; Sigma Aldrich) was dissolved in sterile water in to make a 100-mM solution by alternating heating and vortexing until the palmitate was dissolved. Thu occurred once the solution reached 70 C. […]

Structure (SMILES)	macrophage Sema3e mRNA increase (BMDMs) [fold]	ability of BMDM to migrate to MCP-1 (BMDM [1])	migration of peritoneal macrophages to CCL19 (peritoneal macrophages)	Tnfa and Il6 mRNA in adipocytes (3T3L1 adipocytes)	activity of Ntn1-promoter luciferase reporter [2]	activity of Unc5b-promoter luciferase reporter [3]	secretion of netrin-1 by BMDM (ELISA) (BMDM [4])	increase in Ntn1 mRNA (BMDM [5]) [fold]	increase in Unc5b mRNA (BMDM [5]) [fold]
[Cl][Co][Cl] [CoCl2, Cobalt chloride]	5	strongly impaired	–	–	–	–	–	–	–
CCCCCCCCCCCCCCCC(=O)[O-].[Na+] [palmitate, Sodium palmitate]	–	–	blocked the migration	induced expression	induced the activity	induced the activity	induced secretion	5	3
